Data reported in patent publication US20120071499A1, “Substituted Spiro[3H-Indole-3,6'(5'H)-[1H]Pyrrolo[1,2c]Imidazole-1',2(1H,2'H)-diones” (priority 2010, published 2012).

Molecular target: interaction between p53 and MDM2 proteins (Homo sapiens, UniProt Q00987)
Test: HTRF assay of inhibition of p53-MDM2 interaction (GST-MDM2 / biotinylated p53 peptide)
Protocol: The ability of the compounds to inhibit the interaction between p53 and MDM2 proteins was measured by an HTRF (homogeneous time-resolved fluorescence) assay in which recombinant GST-tagged MDM2 binds to a peptide that resembles the MDM2-interacting region of p53. Binding of GST-MDM2 protein and p53-peptide (biotinylated on its N-terminal end) is registered by the FRET (fluorescence resonance energy transfer) between Europium (Eu)-labeled anti-GST antibody and streptavidin-conjugated Allophycocyanin (APC).
Test is performed in black flat-bottom 384-well plates (Costar) in a total volume of 40 uL containing: 90 nM biotinylate peptide, 160 ng/ml GST-MDM2, 20 nM streptavidin-APC (PerkinElmerWallac), 2 nM Eu-labeled anti-GST-antibody (PerkinElmerWallac), 0.2% bovine serum albumin (BSA), 1 mM dithiothreitol (DTT) and 20 mM Tris-borate saline (TBS) buffer as follows: Add 10 uL of GST-MDM2 (640 ng/ml working solution) in reaction buffer to each well. […] Incubate at 37° C. for 1 h. Add 20 uL streptavidin-APC and Eu-anti-GST antibody mixture (6 nM Eu-anti-GST and 60 nM streptavidin-APC working solution) in TBS buffer with 0.2% BSA, shake at room temperature for 30 minutes and read using a TRF-capable plate reader at

Sequence of interaction between p53 and MDM2 proteins (Q00987 whole entry): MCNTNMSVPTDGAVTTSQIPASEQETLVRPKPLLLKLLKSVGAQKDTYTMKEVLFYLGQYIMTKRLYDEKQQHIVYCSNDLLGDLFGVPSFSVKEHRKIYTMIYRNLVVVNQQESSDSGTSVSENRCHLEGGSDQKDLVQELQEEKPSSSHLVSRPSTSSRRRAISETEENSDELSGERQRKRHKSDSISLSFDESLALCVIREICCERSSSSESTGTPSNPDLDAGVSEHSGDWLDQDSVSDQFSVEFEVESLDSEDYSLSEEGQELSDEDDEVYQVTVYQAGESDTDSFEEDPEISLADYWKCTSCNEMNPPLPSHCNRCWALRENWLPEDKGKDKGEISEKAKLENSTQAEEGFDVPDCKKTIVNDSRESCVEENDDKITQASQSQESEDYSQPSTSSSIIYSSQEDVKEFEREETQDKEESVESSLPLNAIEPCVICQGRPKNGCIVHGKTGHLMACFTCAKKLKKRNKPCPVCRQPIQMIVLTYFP

SMILES	IC50
COc1cc(N2CN3[C@@H](CC(C)(C)C)[C@@]4(C(=O)N(CO)c5cc(Cl)ccc54)[C@@H](c4cccc(Cl)c4F)[C@@H]3C2=O)ccc1C(N)=O [Example 31]	12 nM
CC(C)(C)CC1N2CN(CC(=O)O)C(=O)C2C(c2cccc(Cl)c2F)C12C(=O)Nc1cc(Cl)ccc12 (racemic) [Example 37, rac of 2-((3R,5′S,7′S,7a′R)-6-chloro-7′-(3-chloro-2-fluorophenyl)-5′-neopentyl-1′,2-dioxo-7′,7a′-dihydrospiro[indoline-3,6′-pyrrolo[1,2-c]imidazole]-2′(1′H,3′H,5′H)-yl)acetic acid]	13 nM
CC(C)(C)C[C@H]1N2CN(c3ccc(C(=O)O)cc3)C(=O)[C@@H]2[C@@H](c2cccc(Cl)c2F)[C@@]12C(=O)Nc1cc(Cl)ccc12 [Example 30, chiral 4-((3S,5′R,7′R,7a′S)-6-chloro-7′-(3-chloro-2-fluorophenyl)-5′-neopentyl-1′,2-dioxo-7′,7a′-dihydrospiro[indoline-3,6′-pyrrolo[1,2-c]imidazole]-2′(1′H,3′H,5′H)-yl)benzoic acid]	128 nM
COc1cc(C(=O)O)ccc1N1CN2[C@@H](CC(C)(C)C)[C@@]3(C(=O)Nc4cc(Cl)ccc43)[C@@H](c3cccc(Cl)c3F)[C@@H]2C1=O [Example 21, chiral 4-((3S,5′R,7′R,7a′S)-6-chloro-7′-(3-chloro-2-fluorophenyl)-5′-neopentyl-1′,2-dioxo-7′,7a′-dihydrospiro[indoline-3,6′-pyrrolo[1,2-c]imidazole]-2′(1′H,3′H,5′H)-yl)-3-methoxybenzoic acid]	6 nM
COc1cc(N2CN3[C@@H](CC(C)(C)C)[C@@]4(C(=O)N(CO)c5cc(Cl)ccc54)[C@@H](c4cccc(Cl)c4F)[C@@H]3C2=O)ccc1C(=O)O (racemic) [Example 16, Rac 4-((3R,5′S,7′S,7a′R)-6-chloro-7′-(3-chloro-2-fluorophenyl)-1-(hydroxymethyl)-5′-neopentyl-1′,2-dioxo-7′,7a′-dihydrospiro[indoline-3,6′-pyrrolo[1,2-c]imidazole]-2′(1′H,3′H,5′H)-yl)-2-methoxybenzoic acid]	25 nM
COc1cc(N2CN3[C@@H](CC(C)(C)C)[C@@]4(C(=O)Nc5cc(Cl)ccc54)[C@@H](c4cccc(Cl)c4F)[C@@H]3C2=O)ccc1C(=O)O (racemic) [Example 18, Rac 4-((3R,5′S,7′S,7a′R)-6-chloro-7′-(3-chloro-2-fluorophenyl)-5′-neopentyl-1′,2-dioxo-7′,7a′-dihydrospiro[indoline-3,6′-pyrrolo[1,2-c]imidazole]-2′(1′H,3′H,5′H)-yl) 2-methoxybenzoic acid]	7 nM
COc1cc(C(N)=O)ccc1N1CN2[C@@H](CC(C)(C)C)[C@@]3(C(=O)Nc4cc(Cl)ccc43)[C@@H](c3cccc(Cl)c3F)[C@@H]2C1=O [Example 22, chiral 4-((3R,5′S,7′S,7a′R)-6-chloro-7′-(3-chloro-2-fluorophenyl)-5′-neopentyl-1′,2-dioxo-7′,7a′-dihydrospiro[indoline-3,6′-pyrrolo[1,2-c]imidazole]-2′(1′H,3′H,5′H)-yl)-3-methoxybenzamide]	5 nM
COc1cc(N2CN3[C@@H](CC(C)(C)C)[C@@]4(C(=O)Nc5cc(Cl)ccc54)[C@@H](c4cccc(Cl)c4F)[C@@H]3C2=O)ccc1C(N)=O (single isomer, unassigned) [Example 25]	4 nM
